Measured values published in patent US20240325399A1, “PHARMACEUTICAL COMPOSITION FOR PREVENTING OR TREATING CHOLANGITIS OR LIVER DISEASE CAUSED BY CHOLANGITIS COMPRISING ADENOSINE DERIVATIVE” (FUTURE MEDICINE CO., LTD., priority 2021, published 2024).

How the values were obtained:
[1] = test system: TPA-induced inflammation of the mouse ear; assay: Anti-inflammatory activity, TPA-induced inflammation of the mouse ear; assay type: in vivo, ICR mice; conditions: for Anti-inflammatory activity (TPA-induced mouse ear inflammation): 0.5% in acetone, 20 μl, topical to ear
Method: The adenosine derivatives of the present invention were examined for anti-inflammatory activity in the following animal test. Seven-week-old male ICR mice were treated with TPA (12-O-tetradecanoylphorbol-13-acetate, 20 l) in the right ear. […] Hydrocortisone was used at the same concentration as a control.
6 hrs after treatment with TPA, the mice were secondarily treated with the adenosine derivatives of the present invention. 24 hrs after TPA treatment, test animals were euthanized using a cervical dislocation method. Samples were obtained from the right ear using a 6 mm diameter punch. The activity was observed by measuring the ear sample using a microbalance. Percentages of inhibition were calculated using the following Equation 1. The compositions and amounts used in these experiments are summarized in Tables 14 to 17 and the anti-inflammatory activities thereof are shown in FIGS. 10 to 13.

[2] = target: T1, human A2A adenosine receptor (hA2A) (Homo sapiens, UniProt P29274); assay: Binding affinity for A2A adenosine receptor ([3H]CGS-21680, HEK 293 cell); conditions: percentage inhibition of specific binding of 10 μM labeled ligand in the presence of 10 μM of the unlabeled ligand NECA
T1 construct: expressed in transfected cells; host or cells: HEK 293 cell
T1 sequence (P29274 whole entry): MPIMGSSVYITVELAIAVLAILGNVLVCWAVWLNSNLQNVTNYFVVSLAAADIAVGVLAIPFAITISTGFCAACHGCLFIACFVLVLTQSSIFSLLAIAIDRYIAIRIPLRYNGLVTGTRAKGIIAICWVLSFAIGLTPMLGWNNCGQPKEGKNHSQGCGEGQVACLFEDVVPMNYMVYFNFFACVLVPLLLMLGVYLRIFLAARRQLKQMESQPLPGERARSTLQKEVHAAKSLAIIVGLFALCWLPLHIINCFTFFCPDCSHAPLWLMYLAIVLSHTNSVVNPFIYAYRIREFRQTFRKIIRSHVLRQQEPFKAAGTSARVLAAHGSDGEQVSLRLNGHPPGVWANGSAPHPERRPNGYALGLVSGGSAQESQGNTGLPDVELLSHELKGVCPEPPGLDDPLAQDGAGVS
Method: Each of the compounds synthesized in the examples was measured for IC50 at least 6 different concentrations, and the measurements were analyzed using SigmaPlot software to determine Ki values.

[3] = test system: Sprague Dawley rats; assay: Toxicity after intraperitoneal injection, 24 hrs observation, rats; assay type: in vivo; conditions: SD rats, intraperitoneal 20, 10 and 1 mg/kg
Method: (§1) The Adenosine Derivative of the present invention were assayed for cytotoxicity in animals.

[4] = target: T2, human A1 adenosine receptor (hA1) (Homo sapiens, UniProt P30542); assay: Binding affinity for A1 adenosine receptor ([3H]CCPA, CHO cells); conditions: percentage inhibition of specific binding in the presence of 10 μM of the unlabeled ligand NECA
T2 construct: expressed in transfected cells; host or cells: CHO cells (ATCC No. CCL-61)
T2 sequence (P30542 1-326): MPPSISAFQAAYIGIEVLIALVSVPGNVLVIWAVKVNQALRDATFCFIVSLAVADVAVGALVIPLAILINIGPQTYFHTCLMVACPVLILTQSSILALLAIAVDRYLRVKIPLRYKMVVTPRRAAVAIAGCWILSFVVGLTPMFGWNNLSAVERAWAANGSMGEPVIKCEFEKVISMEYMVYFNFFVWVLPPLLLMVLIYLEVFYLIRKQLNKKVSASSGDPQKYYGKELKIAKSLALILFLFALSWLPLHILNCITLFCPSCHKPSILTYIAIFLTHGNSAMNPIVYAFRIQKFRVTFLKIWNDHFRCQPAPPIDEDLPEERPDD
Method: CHO cells (ATCC No. CCL-61), in which A1 and A3 adenosine receptors were expressed, were cultured in F-12 media (Gibco, U.S.A.) supplemented with 10% fetal bovine serum (FBS) and penicillin/streptomycin (100 units/ml and 100 g/ml), at 37° C. in a 5% CO2 atmosphere. […] Incubation for 1 hr in a 37° C. incubator was followed by rapid filtration in a vacuum using a cell collector (TOMTEC, U.S.A.). Subsequently, the test tubes were washed three times with 3 ml of the buffer before radioactivity was measured using a γ-counter. […] Ki for binding affinity was determined by subtracting the non-specific binding value from the total binding value. On the basis of the specific binding values, the samples were analyzed for binding affinity to various adenosine receptors.

[5] = test system: ICR mice; assay: Toxicity after intraperitoneal injection, 24 hrs observation, mice; assay type: in vivo; conditions: intraperitoneal 20, 10 and 1 mg/kg
Method: as §1

[6] = patients with liver cirrhosis; cited from earlier work

Structure (SMILES): O[C@@H]1[C@H](O)CS[C@H]1n1cnc2c(NCc3cccc(F)c3)nc(Cl)nc21 [Example 1, (2R,3R,4S)-2-(2-chloro-6-(3-fluorobenzylamino)-9H-purin-9-yl)tetrahydrothiophen-3,4-diol]
- Anti-inflammatory activity (TPA-induced mouse ear inflammation) [1]: increased

Structure (SMILES): O[C@@H]1[C@H](O)CS[C@H]1n1cnc2c(NCc3cccc(Cl)c3)nc(Cl)nc21 [Example 2, (2R,3R,4S)-2-(2-chloro-6-(3-chlorobenzylamino)-9H-purin-9-yl)tetrahydrothiophen-3,4-diol]
- % inhibition of specific binding, hA2A [2]: 17.7%
- Weight gain or feed intake versus control group [3]: No difference in weight gain or feed intake
- % inhibition of specific binding, hA1 [4]: 37.9%
- Weight gain or feed intake versus control group [5]: No difference in weight gain or feed intake

Structure (SMILES): COc1ccc(Cl)cc1CNc1nc(Cl)nc2c1ncn2[C@@H]1SC[C@@H](O)[C@H]1O [Example 6, (2R,3R,4S)-2-(2-chloro-6-(5-chloro-2-methoxybenzylamino)-9H-purin-9-yl)tetrahydrothiophen-3,4-diol]
- Percentage of inflammation inhibition ([1]; 0.5% in a mixture of distilled water and acetone (1:4)): 34%
- Anti-inflammatory activity (TPA-induced mouse ear inflammation) [1]: increased

Structure (SMILES): O[C@@H]1[C@H](O)CO[C@H]1n1cnc2c(NCc3cccc(I)c3)nc(Cl)nc21 [Example 16, (2R,3R,4R)-2-(2-chloro-6-(3-iodobenzylamino)-9H-purin-9-yl)tetrahydrofuran-3,4-diol]
- Percentage of inflammation inhibition ([1]; 0.5% in a mixture of DMSO and acetone (1:9)): 79%

Structure (SMILES): CC[C@H]1[C@@H](O)[C@@H]2[C@H](CC[C@]3(C)[C@@H]([C@H](C)CCC(=O)O)CC[C@@H]23)[C@@]2(C)CC[C@@H](O)C[C@@H]12 [OCA, obeticholic acid]
- Liver safety in patients [6]: may induce acute liver failure in patients with liver cirrhosis
